In PMC12484723, “COOKIE-Pro: covalent inhibitor binding kinetics profiling on the proteome scale” (Nature Communications, 2025) one finds KI (inactivation) data, which are given here for one molecule.

In one experiment the target is T1, TEC kinase (Homo sapiens, UniProt P42680).
T1 sequence (P42680 1-631): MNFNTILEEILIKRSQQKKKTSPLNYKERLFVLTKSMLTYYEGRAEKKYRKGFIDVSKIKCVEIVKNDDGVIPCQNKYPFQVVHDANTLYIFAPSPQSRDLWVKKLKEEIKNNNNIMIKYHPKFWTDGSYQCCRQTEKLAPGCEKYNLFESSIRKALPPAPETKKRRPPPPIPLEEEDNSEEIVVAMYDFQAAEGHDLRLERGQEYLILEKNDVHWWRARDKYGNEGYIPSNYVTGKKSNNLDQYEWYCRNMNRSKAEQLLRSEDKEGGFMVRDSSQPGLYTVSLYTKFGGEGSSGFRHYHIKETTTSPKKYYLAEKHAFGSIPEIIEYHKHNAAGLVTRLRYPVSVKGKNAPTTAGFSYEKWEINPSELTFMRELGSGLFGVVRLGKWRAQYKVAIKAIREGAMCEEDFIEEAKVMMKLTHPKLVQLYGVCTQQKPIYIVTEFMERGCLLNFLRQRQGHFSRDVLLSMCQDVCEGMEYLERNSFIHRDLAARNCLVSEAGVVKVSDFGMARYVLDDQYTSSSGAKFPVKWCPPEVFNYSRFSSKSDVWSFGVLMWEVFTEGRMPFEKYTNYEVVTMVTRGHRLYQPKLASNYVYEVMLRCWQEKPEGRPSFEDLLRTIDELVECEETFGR
Description: COOKIE-Pro competition chemoproteomics in permeabilized Ramos cells (kinact, KI). In kind it is cell-based.

The target of another experiment is BLK (Homo sapiens, UniProt P51451). Described as above. The experiment is classed as cell-based.
BLK, sequence (P51451 2-505): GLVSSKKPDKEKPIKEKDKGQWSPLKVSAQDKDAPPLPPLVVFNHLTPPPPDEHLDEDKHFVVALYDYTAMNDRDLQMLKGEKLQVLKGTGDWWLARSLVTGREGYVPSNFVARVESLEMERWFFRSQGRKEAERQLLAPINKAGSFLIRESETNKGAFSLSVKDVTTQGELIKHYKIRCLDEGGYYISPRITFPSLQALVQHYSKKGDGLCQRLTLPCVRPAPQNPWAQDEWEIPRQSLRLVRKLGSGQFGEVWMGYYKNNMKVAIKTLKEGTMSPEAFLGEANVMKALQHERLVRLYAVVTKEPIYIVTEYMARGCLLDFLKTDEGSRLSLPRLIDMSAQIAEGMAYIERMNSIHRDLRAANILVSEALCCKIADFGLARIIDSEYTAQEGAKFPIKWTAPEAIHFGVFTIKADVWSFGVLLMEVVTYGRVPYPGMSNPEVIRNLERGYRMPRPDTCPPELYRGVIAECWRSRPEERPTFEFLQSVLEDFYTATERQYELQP

`C=CC(=O)N1CCC[C@@H](n2nc(-c3ccc(Oc4ccccc4)cc3)c3c(N)ncnc32)C1` [ibrutinib]: the KI (inactivation) is 233 nM on TEC kinase and 28 nM on BLK.
